In US10370622B2, “Soap bar having enhanced antibacterial activity” (Conopco, Inc., priority 2013, dated 2019):

Test: Silver ion solubility derived from solubility product (Ksp) in water at 25° C.
Details: calculated as (Ksp·x)^(1/(x+1))

With `[Cl][Ag]` [Silver chloride] the “Silver Ion Solubility [Ag+]” value was 13 µM.

Test: not given
Details: in water at 25° C.; cited from earlier work

Going from `O=S(=O)([O-])[O-].[Ag+].[Ag+]` [Silver sulfate] to `O=C([O-])CC(O)(CC(=O)[O-])C(=O)[O-].[Ag+].[Ag+].[Ag+]` [Silver citrate], the Ksp falls from 1.4e-05 mol/L to 2.5e-18 mol/L.

First: O=C([O-])c1ccccc1.[Ag+] [Silver benzoate]
Second: [Cl][Ag] [Silver chloride]
The Ksp of the first is higher: 2.5e-05 mol/L for the first, 1.8e-10 mol/L for the second.

In the case of `[Br][Ag]` [Silver bromide], the Ksp is listed as 5.3e-13 mol/L.
